Measured values as given in ChEMBL document CHEMBL1139217, “Development of dihydropyridone indazole amides as selective Rho-kinase inhibitors” (J Med Chem, 2007).

How the values were obtained:
[1] = target: Ribosomal protein S6 kinase alpha-1 (Homo sapiens, UniProt Q15418); assay: Inhibition of RSK1
[2] = target: Rho-associated protein kinase 1 (Homo sapiens, UniProt Q13464); assay: Inhibition of human recombinant ROCK1 expressed in Sf9 cells […]
[3] = target: Ribosomal protein S6 kinase beta-1 (Homo sapiens, UniProt P23443); assay: Inhibition of p70S6K
Thoracic aorta = assay: Dilatory activity against phenylephrine-induced contraction of Sprague-Dawley rat thoracic aorta; format: functional, tissue-based
[4] = Cmax in Sprague-Dawley rat at 1.6 mg/kg, iv; format: ADME, organism-based; set-up: dose 1.6 mg/kg, route intravenous; details: in vivo
[5] = Half life in Sprague-Dawley rat at 1.6 mg/kg; format: ADME, organism-based; set-up: dose 1.6 mg/kg; details: in vivo
[6] = Clearance in Sprague-Dawley rat at 1.6 mg/kg; format: ADME, organism-based; set-up: dose 1.6 mg/kg; details: in vivo
[7] = Volume of distribution in Sprague-Dawley rat at 1.6 mg/kg; format: ADME, organism-based; set-up: dose 1.6 mg/kg; details: in vivo, read-out: Vdss
[8] = Oral bioavailability in Sprague-Dawley rat at 1.6 mg/kg, po; format: ADME, organism-based; details: in vivo
[9] = Cmax in Sprague-Dawley rat at 0.9 mg/kg, iv; format: ADME, organism-based; set-up: dose 0.9 mg/kg, route intravenous; details: in vivo
[10] = Half life in Sprague-Dawley rat at 0.9 mg/kg; format: ADME, organism-based; set-up: dose 0.9 mg/kg; details: in vivo
[11] = Clearance in Sprague-Dawley rat at 0.9 mg/kg; format: ADME, organism-based; set-up: dose 0.9 mg/kg; details: in vivo
[12] = Volume of distribution in Sprague-Dawley rat at 0.9 mg/kg; format: ADME, organism-based; set-up: dose 0.9 mg/kg; details: in vivo, read-out: Vdss
[13] = Oral bioavailability in Sprague-Dawley rat at 0.9 mg/kg, po; format: ADME, organism-based; details: in vivo
[14] = Cmax in Sprague-Dawley rat at 1.8 mg/kg, iv; format: ADME, organism-based; set-up: dose 1.8 mg/kg, route intravenous; details: in vivo
[15] = Half life in Sprague-Dawley rat at 1.8 mg/kg; format: ADME, organism-based; set-up: dose 1.8 mg/kg; details: in vivo
[16] = Clearance in Sprague-Dawley rat at 1.8 mg/kg; format: ADME, organism-based; set-up: dose 1.8 mg/kg; details: in vivo
[17] = Volume of distribution in Sprague-Dawley rat at 1.8 mg/kg; format: ADME, organism-based; set-up: dose 1.8 mg/kg; details: in vivo, read-out: Vdss
[18] = Oral bioavailability in Sprague-Dawley rat at 1.8 mg/kg, po; format: ADME, organism-based; details: in vivo
Rattus norvegicus = assay: Decrease in mean arterial pressure in spontaneously hypertensive rat at 3 mg/kg, po; format: functional, organism-based; set-up: dose 3 mg/kg; details: Artery
[19] = Plasma concentration in spontaneously hypertensive rat at 3 mg/kg after 0.5 hrs; format: ADME, organism-based; set-up: dose 3 mg/kg
[20] = Plasma concentration in spontaneously hypertensive rat at 3 mg/kg after 1 hr; format: ADME, organism-based; set-up: dose 3 mg/kg
[21] = Plasma concentration in spontaneously hypertensive rat at 3 mg/kg after 2 hrs; format: ADME, organism-based; set-up: dose 3 mg/kg
[22] = Plasma concentration in spontaneously hypertensive rat at 3 mg/kg after 4 hrs; format: ADME, organism-based; set-up: dose 3 mg/kg
[23] = Plasma concentration in spontaneously hypertensive rat at 3 mg/kg after 8 hrs; format: ADME, organism-based; set-up: dose 3 mg/kg
[24] = Plasma concentration in spontaneously hypertensive rat at 3 mg/kg after 24 hrs; format: ADME, organism-based; set-up: dose 3 mg/kg
[25] = Clearance in Sprague-Dawley rat; format: ADME, organism-based; details: in vivo
[26] = Cmax in Sprague-Dawley rat at 1.3 mg/kg, iv; format: ADME, organism-based; set-up: dose 1.3 mg/kg, route intravenous; details: in vivo
[27] = Cmax in Sprague-Dawley rat at 1.7 mg/kg, iv; format: ADME, organism-based; set-up: dose 1.7 mg/kg, route intravenous; details: in vivo
[28] = Half life in Sprague-Dawley rat at 1.7 mg/kg; format: ADME, organism-based; set-up: dose 1.7 mg/kg; details: in vivo
[29] = Clearance in Sprague-Dawley rat at 1.7 mg/kg; format: ADME, organism-based; set-up: dose 1.7 mg/kg; details: in vivo
[30] = Volume of distribution in Sprague-Dawley rat at 1.7 mg/kg; format: ADME, organism-based; set-up: dose 1.7 mg/kg; details: in vivo, read-out: Vdss
[31] = Oral bioavailability in Sprague-Dawley rat at 1.7 mg/kg, po; format: ADME, organism-based; details: in vivo
[32] = Oral bioavailability in Sprague-Dawley rat at 1.3 mg/kg, po; format: ADME, organism-based; details: in vivo
[33] = Half life in Sprague-Dawley rat at 1.3 mg/kg; format: ADME, organism-based; set-up: dose 1.3 mg/kg; details: in vivo
[34] = Clearance in Sprague-Dawley rat at 1.3 mg/kg; format: ADME, organism-based; set-up: dose 1.3 mg/kg; details: in vivo
[35] = Volume of distribution in Sprague-Dawley rat at 1.3 mg/kg; format: ADME, organism-based; set-up: dose 1.3 mg/kg; details: in vivo, read-out: Vdss

Chain of Ribosomal protein S6 kinase beta-1 (P23443 whole entry): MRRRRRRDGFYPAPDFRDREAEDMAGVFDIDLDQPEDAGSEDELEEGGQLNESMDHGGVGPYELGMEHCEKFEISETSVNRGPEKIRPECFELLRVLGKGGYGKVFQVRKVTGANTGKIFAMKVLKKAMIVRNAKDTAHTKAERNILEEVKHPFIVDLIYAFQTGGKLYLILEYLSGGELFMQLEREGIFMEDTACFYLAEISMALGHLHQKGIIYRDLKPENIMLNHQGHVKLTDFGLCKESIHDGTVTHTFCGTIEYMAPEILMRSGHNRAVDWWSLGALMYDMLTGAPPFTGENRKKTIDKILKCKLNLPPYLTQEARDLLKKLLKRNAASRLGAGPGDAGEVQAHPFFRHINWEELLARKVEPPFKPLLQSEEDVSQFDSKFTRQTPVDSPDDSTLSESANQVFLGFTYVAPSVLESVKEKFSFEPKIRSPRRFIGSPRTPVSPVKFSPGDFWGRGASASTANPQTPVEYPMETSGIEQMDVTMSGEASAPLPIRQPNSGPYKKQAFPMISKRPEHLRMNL
Chain of Rho-associated protein kinase 1 (Q13464 whole entry): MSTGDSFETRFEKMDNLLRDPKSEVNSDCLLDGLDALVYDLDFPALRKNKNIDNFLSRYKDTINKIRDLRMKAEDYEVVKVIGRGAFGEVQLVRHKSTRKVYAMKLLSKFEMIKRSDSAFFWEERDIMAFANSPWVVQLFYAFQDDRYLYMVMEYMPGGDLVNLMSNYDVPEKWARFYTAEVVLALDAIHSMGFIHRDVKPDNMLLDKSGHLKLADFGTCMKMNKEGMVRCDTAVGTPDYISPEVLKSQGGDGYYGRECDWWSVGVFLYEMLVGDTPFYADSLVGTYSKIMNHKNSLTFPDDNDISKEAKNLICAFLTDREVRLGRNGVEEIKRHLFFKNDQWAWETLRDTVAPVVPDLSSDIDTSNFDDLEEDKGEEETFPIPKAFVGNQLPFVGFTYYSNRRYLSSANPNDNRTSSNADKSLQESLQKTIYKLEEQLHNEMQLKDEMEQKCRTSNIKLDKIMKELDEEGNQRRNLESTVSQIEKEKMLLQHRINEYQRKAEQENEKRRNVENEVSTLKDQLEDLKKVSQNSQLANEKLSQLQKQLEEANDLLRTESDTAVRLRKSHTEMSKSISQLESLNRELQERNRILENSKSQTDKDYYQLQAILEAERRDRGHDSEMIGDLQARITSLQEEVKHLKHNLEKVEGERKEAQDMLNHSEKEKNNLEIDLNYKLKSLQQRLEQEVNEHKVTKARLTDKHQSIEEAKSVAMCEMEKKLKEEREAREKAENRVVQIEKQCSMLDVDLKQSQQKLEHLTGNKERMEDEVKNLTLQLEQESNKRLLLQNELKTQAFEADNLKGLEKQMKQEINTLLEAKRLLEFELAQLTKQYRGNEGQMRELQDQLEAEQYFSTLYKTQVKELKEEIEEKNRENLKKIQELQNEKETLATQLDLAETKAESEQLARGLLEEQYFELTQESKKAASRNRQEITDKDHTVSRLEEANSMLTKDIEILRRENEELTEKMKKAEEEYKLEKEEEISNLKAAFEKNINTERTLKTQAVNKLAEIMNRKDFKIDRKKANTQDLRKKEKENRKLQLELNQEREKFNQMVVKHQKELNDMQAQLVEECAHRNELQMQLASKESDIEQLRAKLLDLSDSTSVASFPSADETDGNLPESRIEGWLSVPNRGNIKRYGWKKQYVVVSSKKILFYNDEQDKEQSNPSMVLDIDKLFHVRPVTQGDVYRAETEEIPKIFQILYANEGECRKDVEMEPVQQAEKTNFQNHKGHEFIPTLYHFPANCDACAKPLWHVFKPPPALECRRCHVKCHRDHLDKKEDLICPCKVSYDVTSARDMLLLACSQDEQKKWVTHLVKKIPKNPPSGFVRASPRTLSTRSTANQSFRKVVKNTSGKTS
Chain of Ribosomal protein S6 kinase alpha-1 (Q15418 whole entry): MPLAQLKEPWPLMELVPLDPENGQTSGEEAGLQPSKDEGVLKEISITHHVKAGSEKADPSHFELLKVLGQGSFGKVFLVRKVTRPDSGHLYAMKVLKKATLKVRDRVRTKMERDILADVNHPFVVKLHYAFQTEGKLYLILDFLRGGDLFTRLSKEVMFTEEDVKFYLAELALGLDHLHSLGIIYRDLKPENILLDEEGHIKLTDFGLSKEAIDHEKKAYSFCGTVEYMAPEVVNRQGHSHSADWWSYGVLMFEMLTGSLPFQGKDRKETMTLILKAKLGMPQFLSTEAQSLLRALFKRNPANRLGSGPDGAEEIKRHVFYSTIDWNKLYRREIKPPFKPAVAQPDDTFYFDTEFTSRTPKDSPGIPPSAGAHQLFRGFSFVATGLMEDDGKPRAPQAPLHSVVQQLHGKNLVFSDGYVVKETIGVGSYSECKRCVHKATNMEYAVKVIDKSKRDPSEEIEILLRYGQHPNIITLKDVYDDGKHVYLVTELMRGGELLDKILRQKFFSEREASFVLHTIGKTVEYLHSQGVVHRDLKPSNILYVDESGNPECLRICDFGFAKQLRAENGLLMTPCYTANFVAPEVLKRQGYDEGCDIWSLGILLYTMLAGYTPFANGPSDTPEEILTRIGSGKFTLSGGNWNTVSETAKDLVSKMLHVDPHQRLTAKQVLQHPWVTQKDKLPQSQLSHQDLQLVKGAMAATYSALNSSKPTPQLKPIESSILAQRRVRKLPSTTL

Row | SMILES | IC50 [1] | IC50 [2] | IC50 [3] | IC50 (Thoracic aorta) | Cmax [9] | half-life [10] | clearance [11] | Vd [12] | bioavailability [13] | further results
1 | CC1=C(C(=O)Nc2ccc3[nH]ncc3c2F)C(c2ccc(C(F)(F)F)cc2)CC(=O)N1 (stereo unspecified) | > 10000 nM | 2500 nM | > 10000 nM | – | – | – | – | – | – | –
2 | CC1=C(C(=O)Nc2ccc3[nH]ncc3c2)C(c2ccc(F)cc2)CC(=O)N1 (stereo unspecified) | 1410 nM | 51 nM | 1100 nM | 200 nM | – | – | – | – | – | Cmax [4]: 668 ng/mL; half-life [5]: 1 h; clearance [6]: 47 mL/min/kg; Vd [7]: 2.1 L/kg; bioavailability [8]: 14%
3 | CC1=C(C(=O)Nc2ccc3[nH]ncc3c2)C(c2ccc(C(F)(F)F)cc2)CC(=O)N1 (stereo unspecified) | 740 nM | 5 nM | – | 39 nM | 315 ng/mL | 0.7 h | 51 mL/min/kg | 2.3 L/kg | 22% | –
4 | CC1=C(C(=O)Nc2cc3cn[nH]c3cc2F)C(c2ccc(C(F)(F)F)cc2)CC(=O)N1 (stereo unspecified) | 780 nM | 14 nM | 1940 nM | 190 nM | – | – | – | – | – | Cmax [14]: 1560 ng/mL; half-life [15]: 1 h; clearance [16]: 25 mL/min/kg; Vd [17]: 1.4 L/kg; bioavailability [18]: 61%; Activity (Rattus norvegicus): Dose-dependent effect; concentration at 0.5 h [19]: 193 ng/mL; concentration at 1 h [20]: 192 ng/mL; concentration at 2 h [21]: 190 ng/mL; concentration at 4 h [22]: 110 ng/mL; concentration at 8 h [23]: 74 ng/mL; concentration at 24 h [24]: 2 ng/mL
5 | CC1=C(C(=O)Nc2ccc3[nH]ncc3c2)C(c2ccc(F)cc2)NC(=O)N1 (stereo unspecified) [GSK-180736A] | 3100 nM | 14 nM | 2850 nM | 760 nM | – | – | – | – | – | clearance [25]: 50 mL/min/kg; Cmax [26]: 567 ng/mL
6 | CC1=C(C(=O)Nc2ccc3[nH]ncc3c2)C(c2ccc3ccccc3c2)CC(=O)N1 (stereo unspecified) [GSK-270822A] | 1100 nM | 9 nM | 1550 nM | 76 nM | – | – | – | – | – | Cmax [27]: 700 ng/mL; half-life [28]: 0.9 h; clearance [29]: 45 mL/min/kg; Vd [30]: 1.8 L/kg; bioavailability [31]: 13%
7 | CC1=C(C(=O)Nc2ccc3[nH]ncc3c2)C(c2ccc(Cl)c(Cl)c2)CC(=O)N1 (stereo unspecified) [GSK-299115A] | 620 nM | 8 nM | 560 nM | – | 334 ng/mL | 0.8 h | 57 mL/min/kg | 2.4 L/kg | 1% | –
8 | CC1=C(C(=O)Nc2ccc3[nH]nc(C)c3c2)C(c2ccc(C(F)(F)F)cc2)CC(=O)N1 (stereo unspecified) [GSK-466314A] | 1950 nM | 9 nM | 4790 nM | 130 nM | – | – | – | – | – | bioavailability [32]: 18%; Cmax [26]: 672 ng/mL; half-life [33]: 2 h; clearance [34]: 24 mL/min/kg; Vd [35]: 2.8 L/kg
9 | CC1=C(C(=O)Nc2cc(Cl)c3[nH]ncc3c2)C(c2ccc(C(F)(F)F)cc2)CC(=O)N1 (stereo unspecified) [GSK-466317A] | 90 nM | 8 nM | 590 nM | – | 424 ng/mL | 1.2 h | 81 mL/min/kg | 3.9 L/kg | 29% | –
